Usually AC50 stands for the concentration giving half of the maximal activity seen. Usually Ki stands for a dissociation constant, usually derived from enzyme kinetics or from competition with a known ligand.

For experiment [1], the target named is Protein disulfide-isomerase (Homo sapiens, UniProt P07237). In words: inhibition of PDI-driven insulin aggregation – biochemical, turbidity, absorbance, cherry-picked samples, dose response (AID 602350). The format is functional.
Experiment [2] addresses Dual specificity tyrosine-phosphorylation-regulated kinase 1A (Homo sapiens, UniProt Q13627). In kind it is functional.
Experiment [3] concerns the target Ribosomal protein S6 kinase beta-1 (Homo sapiens, UniProt P23443). In kind it is functional.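 Further: measured as one member of a kinome-wide profiling panel.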
Experiment [4] concerns the target Serine/threonine-protein kinase pim-3 (Homo sapiens, UniProt Q86V86). In kind it is functional.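 Further: value obtained as one member of a broad kinase panel profiling effort.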
Experiment [5] addresses Megakaryocyte-associated tyrosine-protein kinase (Homo sapiens, UniProt P42679). In kind it is functional.
Experiment [6] concerns the target Aurora kinase B (Homo sapiens, UniProt Q96GD4). In kind it is functional.
Experiment [7] deals with MAP kinase-activated protein kinase 3 (Homo sapiens, UniProt Q16644). In kind it is functional.
Experiment [8] in a line: Mcl1-dependent cancer cell viability – HMC-1-8 cells, luminescence, dry powder, selectivity assay for A1 inhibitor project, dose response (AID 504415). The format is functional, cell-based. As to conditions: Homo sapiens.

The source made the active and inactive calls.

Ribosomal protein S6 kinase beta-1, sequence (P23443 whole entry): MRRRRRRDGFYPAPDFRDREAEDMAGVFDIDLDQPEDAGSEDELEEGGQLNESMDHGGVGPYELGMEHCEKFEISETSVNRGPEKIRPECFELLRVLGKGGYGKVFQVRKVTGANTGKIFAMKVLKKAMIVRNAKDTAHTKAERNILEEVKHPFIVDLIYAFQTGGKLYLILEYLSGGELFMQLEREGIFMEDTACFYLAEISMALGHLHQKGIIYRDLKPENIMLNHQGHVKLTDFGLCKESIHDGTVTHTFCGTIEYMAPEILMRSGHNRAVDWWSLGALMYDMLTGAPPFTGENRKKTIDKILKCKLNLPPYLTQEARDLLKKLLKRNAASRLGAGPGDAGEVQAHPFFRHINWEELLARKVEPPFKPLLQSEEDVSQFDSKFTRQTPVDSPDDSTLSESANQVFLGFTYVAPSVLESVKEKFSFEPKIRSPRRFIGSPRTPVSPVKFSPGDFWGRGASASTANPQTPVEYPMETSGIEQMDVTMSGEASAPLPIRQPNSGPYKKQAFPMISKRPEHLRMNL
Megakaryocyte-associated tyrosine-protein kinase, sequence (P42679 whole entry): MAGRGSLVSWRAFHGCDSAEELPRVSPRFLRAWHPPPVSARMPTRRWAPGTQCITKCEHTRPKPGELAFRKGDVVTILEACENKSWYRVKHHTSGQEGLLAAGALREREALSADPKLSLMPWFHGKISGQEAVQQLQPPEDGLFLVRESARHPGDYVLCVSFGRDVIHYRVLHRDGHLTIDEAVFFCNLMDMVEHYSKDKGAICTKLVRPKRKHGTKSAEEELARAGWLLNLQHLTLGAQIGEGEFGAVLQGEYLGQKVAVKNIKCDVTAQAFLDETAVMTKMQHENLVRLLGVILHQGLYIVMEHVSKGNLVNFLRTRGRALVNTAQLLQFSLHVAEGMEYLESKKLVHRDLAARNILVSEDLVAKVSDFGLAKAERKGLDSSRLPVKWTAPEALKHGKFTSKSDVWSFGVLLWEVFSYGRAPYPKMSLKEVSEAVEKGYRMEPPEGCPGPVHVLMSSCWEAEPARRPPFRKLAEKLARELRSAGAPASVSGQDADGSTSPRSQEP
MAP kinase-activated protein kinase 3, sequence (Q16644 whole entry): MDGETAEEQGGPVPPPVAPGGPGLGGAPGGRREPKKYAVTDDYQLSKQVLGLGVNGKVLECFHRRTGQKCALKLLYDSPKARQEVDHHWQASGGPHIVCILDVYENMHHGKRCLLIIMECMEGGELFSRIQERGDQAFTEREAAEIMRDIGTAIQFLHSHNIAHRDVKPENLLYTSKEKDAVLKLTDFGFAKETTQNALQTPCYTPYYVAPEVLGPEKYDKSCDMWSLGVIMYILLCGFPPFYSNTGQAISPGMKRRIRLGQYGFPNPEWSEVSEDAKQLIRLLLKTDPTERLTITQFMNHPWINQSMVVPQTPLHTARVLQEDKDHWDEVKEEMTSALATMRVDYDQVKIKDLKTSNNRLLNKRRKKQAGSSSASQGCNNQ
Aurora kinase B, sequence (Q96GD4 whole entry): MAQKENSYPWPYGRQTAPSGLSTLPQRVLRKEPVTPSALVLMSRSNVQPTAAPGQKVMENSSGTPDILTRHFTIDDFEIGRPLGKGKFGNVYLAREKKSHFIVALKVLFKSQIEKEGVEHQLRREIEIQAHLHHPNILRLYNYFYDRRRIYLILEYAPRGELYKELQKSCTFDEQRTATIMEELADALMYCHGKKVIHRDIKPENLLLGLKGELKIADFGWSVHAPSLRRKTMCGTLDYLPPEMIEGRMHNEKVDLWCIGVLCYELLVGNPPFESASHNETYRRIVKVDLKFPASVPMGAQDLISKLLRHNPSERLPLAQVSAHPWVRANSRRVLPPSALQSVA
Protein disulfide-isomerase, sequence (P07237 whole entry): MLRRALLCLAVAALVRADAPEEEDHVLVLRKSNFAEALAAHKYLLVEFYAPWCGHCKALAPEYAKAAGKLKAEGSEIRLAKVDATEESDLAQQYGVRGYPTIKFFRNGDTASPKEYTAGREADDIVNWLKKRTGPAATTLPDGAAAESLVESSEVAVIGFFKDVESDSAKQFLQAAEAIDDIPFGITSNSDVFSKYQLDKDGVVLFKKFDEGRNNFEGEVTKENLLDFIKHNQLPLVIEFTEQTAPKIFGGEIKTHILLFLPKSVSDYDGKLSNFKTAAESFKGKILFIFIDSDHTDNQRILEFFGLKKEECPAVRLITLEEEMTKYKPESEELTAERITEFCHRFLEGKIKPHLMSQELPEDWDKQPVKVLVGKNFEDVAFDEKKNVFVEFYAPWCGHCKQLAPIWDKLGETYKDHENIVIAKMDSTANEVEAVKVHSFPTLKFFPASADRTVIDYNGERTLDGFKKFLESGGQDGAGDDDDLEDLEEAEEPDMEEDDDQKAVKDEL

Consider `CN(C)C(=O)CSc1nnc([C@H](Cc2c[nH]c3ccccc23)NC(=O)OC(C)(C)C)o1`, for which the AC50 in experiment [1] is 19.5 µM (active).

For `Cc1c(F)c(N2CCC(N)C2)nc2[nH]cc(C(=O)O)c(=O)c12` (stereo not drawn), the Ki is 3.16 µM (active) in experiment [2]; 2 µM (active) in experiment [3]; 5.01 µM (active) in experiment [4]; 2 µM (active) in experiment [5]; 6.31 µM (active) in experiment [6]; 7.94 µM (active) in experiment [7].

As for `CCSc1c([N+](=O)[O-])c(=O)oc2ccccc12`, the AC50 in experiment [8] was 23.4 µM (active).

The record behind these values is ChEMBL document CHEMBL1201862, “PubChem BioAssay data set” (2004).
